Laboratory results from patent EP4818189A1, “NITROGEN-CONTAINING HETEROCYCLIC COMPOUND, AND PREPARATION METHOD AND USE THEREFOR” (Chengdu Di'ao Pharmaceutical Group Co., Ltd., priority 2023, dated 2025).
Where a SMILES comes first, the peptide text is derived from it. [ ]: non-standard residue; d: D form. The star is where a group is joined. pGlu = O=C1CC[C@@H](C(=O)O)N1; Aze = O=C(O)[C@@H]1CCN1; dAze = O=C(O)[C@H]1CCN1; Bz = O=C(c1ccccc1)*

Columns and labels:
[1] = Mouse pharmacokinetic detection; format: in vivo; conditions: CD1 mice
Experimental: The detection was carried out in 6-8-week-old CD1 mice (purchased from: Speifu (Beijing) Biotechnology Co., Ltd.). […] The concentration of the compound in a plasma sample was analyzed by LC-MS/MS. Pharmacokinetic calculation was carried out by using WinNonlin (Phoenix™, Version 8.3) or other similar software. The following pharmacokinetic parameters were calculated based on plasma concentration and time data: Oral administration: AUClast, bioavailability (F). Statistical calculation was carried out on the above parameter data. Table 3 Pharmacokinetic data of some compounds administered orally in mice

[2] = Plasma stability determination; format: in vitro ADME; conditions: mouse
Experimental: Mouse plasma (purchased from IPHASE, Batch No. 23B007) was thawed in a 37°C water bath, centrifuged to remove an upper clot, and the pH value was recorded as 7-8. An appropriate volume of stock solution of test compound in acetonitrile (at a concentration of 10 mM) was diluted with acetonitrile to 1 mM, so as to serve as a test drug solution. An appropriate volume of test drug solution was added to a corresponding volume of plasma and mixed uniformly, such that the concentration of the test compound in the incubation system was 5 µM, and the content of the organic solvent acetonitrile was 0.5%. 50 µL of mixed plasma was transferred into a 96-well plate (N=2), incubated at 37°C in a water bath for a designated time, and then added with 300 µL of internal standard-containing methanol solution to terminate the reaction. The reaction mixture was vortexed and centrifuged, and the supernatant was subjected to LC-MS/MS analysis. Propantheline and ZZL-7 were used as positive controls, and processed and tested under the same conditions as the test compound. A curve was plotted with the remaining percentage of the compound against incubation time to obtain a k value, and the half-life of each compound was calculated.

[3] = tested on: MDR1-MDCK II cells; assay: Permeability detection in MDR1-MDCK II cell monolayer; format: in vitro ADME; conditions: permeability rank
Experimental: (§1) MDR1-MDCK II cells (imported from the Netherlands Cancer Institute) were seeded in a 96-well cell plate at a density of 3.33×10^5 cells/mL, and cultured in a carbon dioxide incubator for 4-7 days to form a cell monolayer. A Hank's balanced salt solution (HBSS, pH 7.40 ± 0.05) containing 10.0 mM 4-(2-hydroxyethyl)-1-piperazineethanesulfonic acid (HEPES) was used as a transport buffer. A DMSO stock solution of compound was diluted to 2 µM (DMSO < 1.0%) with the transport buffer, and added to the basolateral (B) side and apical (A) side respectively (N=2). The bidirectional (A-B and B-A) incubation concentration of Digoxin, a P-gp substrate, was 10 µM, and the unidirectional (A-B) incubateion concentrations of Nadolol, a low-permeability control, and Metoprolol, a high-permeability control, were 2 µM. The cell plate was incubated in a 5% CO2 cell incubator at 37°C and saturated humidity for 2.5 hours, then final samples from a receiver side and a donor side were collected, added with the transport buffer and a precipitant at an appropriate ratio, and analyzed by LC-MS/MS, and an apparent permeability coefficient, an efflux ratio and a solution recovery were calculated.
(§2) After the transport experiment was completed, an integrity of the MDR1-MDCK II cell layer was detected by a lucifer yellow detection experiment. Residual solution in apical and basolateral wells was removed, and 75 µL of transport buffer containing 100 µM lucifer yellow was added to the apical wells and 250 µL of transport buffer was added to the basolateral wells respectively. The cell plate was incubated in a 5% CO2 cell incubator at 37 °C and saturated humidity for 30 minutes, then 20 µL of sample was taken from the apical side and mixed with 60 µL of transport buffer and 80 µL of sample was taken from the basolateral side. A relative fluorescence intensity was detected by a microplate reader at excitation/emission wavelengths of 425/528 nm, and the permeability of Lucifer Yellow was calculated.
(§3) The apparent permeability coefficient (Papp), efflux ratio (ER) and %solution recovery were respectively calculated by following formulas: Papp = (VR)/(Area × Time) × ([drug]receiver)/([drug]initial,donor) = (VR)/(Area × Time) × (CR)/(C0) [formula] Efflux Ratio = (Papp (B−A))/(Papp (A−B)) [formula] %Solution Recovery = (CR × VR + CD × VD)/(C0 × VD) × 100 [formula]
(§4) VR was the volume of solution in the receiver side (0.075 mL for the apical side and 0.25 mL for the basolateral side respectively), VD was the volume of solution in the donor side (0.075 mL for the apical side and 0.25 mL for the basolateral side respectively), CR was the peak area ratio of compound in the receiver side, CD was the peak area ratio of compound in the donor side, C0 was the initial peak area ratio of compound in the donor side, Area was the surface area (0.143 cm^2) of the cell monolayer, and Time was incubation time of 9000 seconds (150 minutes). Papp(B-A) and Papp(A-B) respectively referred to the apparent permeability coefficient from the basolateral side to the apical side and the apparent permeability coefficient from the apical side to the basolateral side.
(§5) The permeability of Lucifer Yellow(%Lucifer Yellow) was calculated by the following formula: %Lucifer Yellow = (VBasolateral × RFUBasolateral)/(VApical × RFUApical + VBasolateral × RFUBasolateral) × 100 [formula]
(§6) RFUApical and RFUBasolareral respectively referred to relative fluorescence intensities of lucifer yellow in the apical side and the basolateral side. VApical and VBasolateral respectively referred to loading volumes (0.075 mL and 0.25 mL respectively) in the apical side and the basolateral side. Table 2 Permeability data of some compounds

[4] = as above; format: in vitro ADME; conditions: dog, pH 7.4, MDR1-MDCK II cells, 2 µM, 2.5 hours; for Papp A→B at 2.5 h, 2 µM: apical to basolateral; for Papp B→A at 2.5 h, 2 µM: basolateral to apical
Experimental: as §1, §2, §3, §4, §5, §6

[5] = Rat pharmacokinetic detection; format: in vivo; conditions: plasma, male SD rats; for AUC(0-t): oral gavage 15 mg/kg; for bioavailability: oral gavage 15 mg/kg vs intravenous 10 mg/kg
Experimental: The detection was carried out in 6-8-week-old male SD rats (purchased from:SPF (Beijing) Biotechnology Co., Ltd.). A test compound was dissolved in a solution containing 10% DMSO, 15% Solutol HS and 75% (aqueous solution of 10% hydroxypropyl-β-cyclodextrin), and administered via intravenous injection (10 mg/kg) or oral gavage (15 mg/kg). A concentration of the compound in a plasma sample was analyzed by LC-MS/MS. Pharmacokinetic calculation was carried out by using WinNonlin (Phoenix™, Version 8.3). The following pharmacokinetic parameters were calculated based on plasma concentration and time data: Oral administration: AUClast, bioavailability (F). Statistical calculation was carried out on the above parameter data. Table 4 Pharmacokinetic data of some compounds administered orally in rats

[6] = plasma, oral gavage 10 mg/kg vs intravenous 10 mg/kg
[7] = plasma, ZZL-7 administered at 100 mg/kg via PO

Structure (SMILES) | AUC(0-t) ([1]; plasma, oral gavage 10 mg/kg) | bioavailability [1, 6] | half-life at 5 µM [2] | further results
COC(=O)[C@@H](NC(=O)C1CCN1C(=O)C1CC1)C(C)C (some centres unmarked) [A-2-2] | 405 ng·h/mL | 21.5% | – | –
[2H]C([2H])([2H])OC(=O)[C@@H](NC(=O)C1CCN1C(C)=O)C(C)C (some centres unmarked) [A-2-4] | 3770 ng·h/mL | 80.2% | – | –
COC(=O)[C@@H](NC(=O)[C@@H]1CCN1C(C)=O)C(C)C [A-2-6] (Ac-[Aze]-Val-OMe) | 3340 ng·h/mL | 148% | – | –
COC(=O)[C@@H](NC(=O)[C@H]1CCN1C(C)=O)C(C)C [A-2-7] (Ac-[dAze]-Val-OMe) | 3990 ng·h/mL | 83.9% | – | –
[2H]C([2H])([2H])C(=O)N1CC[C@H]1C(=O)N[C@H](C(=O)OC)C(C)C [A-2-8] | 3310 ng·h/mL | 88.5% | – | –
[2H]C([2H])([2H])C(=O)N1CC[C@@H]1C(=O)N[C@H](C(=O)OC)C(C)C [A-2-9] | 5250 ng·h/mL | 84.7% | – | –
COC(=O)[C@@H](NC(=O)[C@@H]1CCN1C(=O)C1CC1)C(C)C [A-2-21] | – | – | > 4.82 h | –
COC(=O)[C@@H](NC(=O)[C@H]1CCN1C(=O)c1ccccc1)C(C)C [A-2-22] (Bz-[dAze]-Val-OMe) | – | – | > 4.82 h | –
COC(=O)[C@@H](NC(=O)[C@@H]1CCN1C(=O)c1ccccc1)C(C)C [A-2-23] (Bz-[Aze]-Val-OMe) | – | – | > 4.82 h | –
COC(=O)[C@@H](NC(=O)[C@H]1CCN1C(=O)c1ccc(C(F)(F)F)cc1)C(C)C [A-2-24] | – | – | > 4.82 h | –
COC(=O)[C@@H](NC(=O)[C@@H]1CCN1C(=O)c1ccc(C(F)(F)F)cc1)C(C)C [A-2-25] | – | – | 3.24 h | –
COC(=O)[C@@H](NC(=O)[C@H]1CCN1C(=O)c1ccc(F)cc1)C(C)C [A-2-26] | – | – | 3.83 h | –
COC(=O)[C@@H](NC(=O)[C@@H]1CCN1C(=O)c1ccc(F)cc1)C(C)C [A-2-27] | – | – | 4.75 h | –
COC(=O)[C@@H](NC(=O)[C@@H]1CCN1C(=O)c1ccc(Cl)cc1)C(C)C [A-2-29] | – | – | 3.78 h | –
COC(=O)[C@@H](NC(=O)[C@@H]1CCN1C(=O)c1ccco1)C(C)C [A-2-31] | – | – | > 4.82 h | –
COC(=O)[C@@H](NC(=O)[C@@H]1CCN1C(=O)c1cccs1)C(C)C [A-2-33] | – | – | > 4.82 h | –
CC(=O)N1CCC1C(=O)N[C@H](c1ncc[nH]1)C(C)C (some centres unmarked) [B-2-1] | 1660 ng·h/mL | 44.9% | – | –
[2H]C([2H])([2H])C(=O)N1CC[C@H]1C(=O)N[C@H](c1ncco1)C(C)C [B-2-2] | – | – | – | AUC(0-t) ([1]; in vivo, oral gavage 10 mg/kg): 6950 ng·h/mL; bioavailability ([1]; in vivo, oral gavage 10 mg/kg vs intravenous 10 mg/kg): 153%
CC(=O)N1CC[C@@H]1C(=O)N[C@@H](c1ccccn1)C(C)C [B-2-8] | 2550 ng·h/mL | 72.5% | > 4.82 h | –
COc1ccc(C(NC(=O)[C@H]2CCN2C(C)=O)C(C)C)cc1 (some centres unmarked) [B-2-24] | – | – | > 4.82 h | –
CC(=O)N1CC[C@@H]1C(=O)NC(c1cc2ccccc2[nH]1)C(C)C (some centres unmarked) [B-2-33] | 3360 ng·h/mL | 68.3% | > 4.82 h | –
[2H]C([2H])([2H])C(=O)N1CC[C@H]1C(=O)N[C@@H](c1ncco1)C(C)C [B-2-42] | – | – | > 4.82 h | –
CC(C)C[C@H](NC(=O)[C@@H]1CCC(=O)N1)C(=O)O [D4-pEL, reference compound] ([pGlu]-Leu-OH) | 555 ng·h/mL | 7.7% | – | Rank Papp [3]: Low; Papp A→B at 2.5 h, 2 µM [4]: < 0.216 ×10⁻⁶ cm/s; Papp B→A at 2.5 h, 2 µM [4]: 0.302 ×10⁻⁶ cm/s; AUC(0-t) [5]: 98.6 ng·h/mL; bioavailability [5]: 1.04%
C[C@H](NC(=O)[C@@H]1CCCN1)C(=O)O [D5-PA, reference compound] (H-Pro-Ala-OH) | 38 ng·h/mL | 3.8% | 0.877 h | Rank Papp [3]: Low; Papp A→B at 2.5 h, 2 µM [4]: 0.15 ×10⁻⁶ cm/s; Papp B→A at 2.5 h, 2 µM [4]: 0.3 ×10⁻⁶ cm/s; AUC(0-t) [5]: 11.5 ng·h/mL; bioavailability [5]: 0.71%
CC(C)[N+](C)(CCOC(=O)C1c2ccccc2Oc2ccccc21)C(C)C [Propantheline, reference compound] | – | – | 0.417 h | –
COC(=O)[C@@H](NC(=O)[C@H](C)NC(C)=O)C(C)C [ZZL-7, acetyl-L-alanyl-L-valine methyl ester, reference compound] (Ac-Ala-Val-OMe) | – | – | 0.421 h | AUC(0-t) [1, 7]: 138 ng·h/mL; bioavailability [1, 7]: 7.5%
